Molecules are shown by their SMILES. Calls of active or inactive are those of the source. The calls are words filed in the database; no cut-off is given here.

One data set relates to MCF7. The data set is described as follows: Antiproliferative activity against human MCF7 cells assessed as inhibition of cell growth incubated for 96 hrs by MTT assay. It counts as functional, cell-based. Conditions: MCF7, 96 h.
The test system of data set [1] is KYSE-30. The data set is described as follows: Antiproliferative activity against human KYSE-30 cells assessed as inhibition of cell growth incubated for 72 hrs by MTT assay. The format is functional, cell-based. Conditions: KYSE-30, 72 h.
For data set [2], the system named is KYSE-30. Nature of the data set: Induction of apoptosis in human KYSE-30 cells assessed as loss of nuclei integrity at 10 uM incubated for 72 hrs by DAPI staining based confocal laser scanner microscopy analysis. The format is functional, cell-based.
In data set [3] the test system is KYSE-30. Nature of the data set: Antiproliferative activity against human KYSE-30 cells assessed as reduction of cell viability at 1.25 to 100 uM incubated for 72 hrs by MTT assay. Conditions: dose 1.25-100 µM. The format is functional, cell-based.
The nature of data set [4]: Antiproliferative activity against human NES-G4T cells assessed as reduction of cell viability at 1.25 to 100 uM incubated for 72 hrs by MTT assay. The format is toxicity, cell-based. The conditions noted are these: dose 1.25-100 µM.
Data set [5] relates to KYSE-150 cell line. The data set is described as follows: Antiproliferative activity against human KYSE-150 cell line assessed as inhibition of cell growth incubated for 72 hrs by MTT assay. The conditions noted are these: KYSE-150, 72 h. The format is functional, cell-based.
In data set [6] the test system is KYSE-30. The data set is described as follows: Induction of apoptosis in human KYSE-30 cells assessed as chromatin condensation at 10 uM incubated upto 72 hrs by DAPI staining based confocal laser scanner microscopy analysis. The format is functional, cell-based.
For a further data set, the system named is HET-1A. Nature of the data set: Antiproliferative activity against human HET-1A cells assessed as reduction of cell viability at 1.25 to 100 uM incubated for 72 hrs by MTT assay. It counts as toxicity, cell-based. The conditions noted are these: dose 1.25-100 µM.
The test system of data set [7] is KYSE-30. The data set is described as follows: Induction of apoptosis in human KYSE-30 cells assessed as nuclear fragmentation at 10 uM incubated upto 72 hrs by DAPI staining based confocal laser scanner microscopy analysis. It counts as functional, cell-based.
Data set [8] concerns KYSE-150 cell line. Nature of the data set: Antiproliferative activity against human KYSE-150 cell line assessed as reduction of cell viability at 1.25 to 100 uM incubated for 72 hrs by MTT assay. It counts as functional, cell-based. The conditions noted are these: dose 1.25-100 µM.
The subject of data set [9] is KYSE-150 cell line. Nature of the data set: Induction of apoptosis in human KYSE-150 cell line assessed as effect on ratio of ERK phosphorylation incubated for 4 to 12 hrs by Western blotting analysis. It counts as functional, cell-based. The conditions noted are these: time 4-12 hrs.
Data set [10] deals with NES-G4T. The data set is described as follows: Induction of apoptosis in human NES-G4T cells assessed as effect on ratio of ERK phosphorylation incubated for 4 to 12 hrs by Western blotting analysis. It counts as functional, cell-based. Conditions: time 4-12 hrs.
Data set [11] can be described thus: Antiproliferative activity against human HET-1A cells assessed as inhibition of cell growth incubated for 72 hrs by MTT assay. The format is toxicity, cell-based.
Data set [12] has as its system NES-G4T. The data set is described as follows: Induction of apoptosis in human NES-G4T cells assessed as effect on ratio of AKT phosphorylation incubated for 4 to 12 hrs by Western blotting analysis. The format is functional, cell-based. The conditions noted are these: time 4-12 hrs.
In data set [13] the test system is KYSE-150 cell line. The data set is described as follows: Inhibition of cell growth in human KYSE-150 cell line at 10 uM incubated for 72 hrs by MTT assay relative to control. It counts as functional.
Data set [14] is described as follows: Antiproliferative activity against human NES-G4T cells assessed as inhibition of cell growth incubated for 72 hrs by MTT assay. It counts as toxicity, cell-based.
Data set [15] has as its system KYSE-150 cell line. Nature of the data set: Induction of apoptosis in human […] cell line assessed as loss of nuclei integrity at 10 uM incubated for 72 hrs by DAPI staining based confocal laser scanner microscopy analysis. It counts as functional.
Data set [16] has as its system KYSE-150 cell line. Nature of the data set: Induction of apoptosis in human KYSE-150 cell line assessed as downregulation of ERK protein level incubated for 4 to 12 hrs by Western blotting analysis. Conditions: time 4-12 hrs, TDE = time-dependent effect. It counts as functional, cell-based.
The subject of data set [17] is KYSE-150 cell line. The data set is described as follows: Induction of apoptosis in human KYSE-150 cell line assessed as effect on ratio of AKT phosphorylation incubated for 4 to 12 hrs by Western blotting analysis. The format is functional, cell-based. Conditions: time 4-12 hrs.
Data set [18] concerns KYSE-150 cell line. Nature of the data set: Induction of apoptosis in human KYSE-150 cell line assessed as nuclear fragmentation at 10 uM incubated upto 72 hrs by DAPI staining based confocal laser scanner microscopy analysis. It counts as functional.
Data set [19] deals with KYSE-150 cell line. Nature of the data set: Induction of apoptosis in human KYSE-150 cell line assessed as chromatin condensation at 10 uM incubated upto 72 hrs by DAPI staining based confocal laser scanner microscopy analysis. The format is functional.

As to `CNC(C)C#Cc1ccc(OC)cc1` (stereo not given), the IC50 with MCF7 came to 0.5 µM.

As to `Cc1ccc(/N=C2/NC(C)(C)/C(=C/c3ccc(Br)cc3)S2)cc1Cl`, the concentration for half-maximal inhibition (IC50) with KYSE-30 [1] amounted to 65.4 µM.

For the molecule `CC1(C)N/C(=N/c2ccc(F)cc2)S/C1=C\c1ccc(Br)cc1`, the IC50 with KYSE-30 [1] came out at 10.6 µM.

On to `COc1ccc(/C=C2\S/C(=N\c3ccccc3)N(C)C2C)cc1` (stereo not given), for which the IC50 in the data set on MCF7 was 0.5 µM.

`CC1(C)N/C(=N/c2ccc(Cl)cc2)S/C1=C\c1ccc(Br)cc1`: the IC50 in the data set on KYSE-30 [1] came to 64.2 µM.

On to `CC1(C)N/C(=N/c2ccc([N+](=O)[O-])cc2)S/C1=C\c1ccc(Br)cc1`, for which the IC50 in the data set on KYSE-30 [1] worked out at 31.5 µM.

As for `Cc1ccc(/N=C2/NC(C)(C)/C(=C/c3ccc(Br)cc3)S2)cc1`, the IC50 in the data set on KYSE-30 [1] amounted to 64.3 µM.

`CC1(C)N/C(=N/c2ccccc2)S/C1=C\c1ccc(Br)cc1`: the IC50 with KYSE-30 [1] amounted to 18.6 µM.

On to `CC1(C)N/C(=N/c2ccc(Br)cc2)S/C1=C\c1ccc(Br)cc1`, for which the IC50 with KYSE-30 [1] came to 13.2 µM.

For the molecule `COc1ccc(/N=C2/NC(C)(C)/C(=C/c3ccc(Br)cc3)S2)cc1`, in the data set on KYSE-30 [1], the IC50 came out at 14.2 µM.

Consider `COc1ccc(/N=C2/NC(C)(C)/C(=C/c3ccc(Br)cc3)S2)c([N+](=O)[O-])c1`, for which the outcome in the data set with KYSE-30 [2], in the data set with KYSE-30 [6], in the data set on KYSE-30 [7], in the data set with KYSE-150 cell line [15], with KYSE-150 cell line [18] and in the data set with KYSE-150 cell line [19] was Active. Further, the Activity entry in the data set with KYSE-30 [3] was “Dose-Dependent Effect”; in data set [4] it was “Toxic”; with HET-1A, “Toxic”; in the data set with KYSE-150 cell line [8], “Dose-Dependent Effect”; in the data set on KYSE-150 cell line [16] it was “Tde”. For the same molecule, the IC50 with KYSE-150 cell line [5] worked out at 10.1 µM; with KYSE-30 [1], 16.8 µM. Further, the outcome in the data set on KYSE-150 cell line [9], with NES-G4T [10], with NES-G4T [12] and in the data set on KYSE-150 cell line [17] was inactive. The figures for the IC50 at 72 h in data set [11] and in data set [14] were 13 µM and 202 µM, respectively. Besides, in the data set on KYSE-150 cell line [13], testing at 10 µM gave an inhibition of 71%.

For the origin of these results see ChEMBL document CHEMBL5331079, “Novel thiazolidines of potential anti-proliferation properties against esophageal squamous cell carcinoma via ERK pathway” (Eur J Med Chem, 2023).
